Data on 17 compounds can be found in PubChem BioAssay (NCI).

Where “and” joins values, the source holds several entries; their conditions need not be identical. Identical values can stand only once.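 Step 1: Grow cells in 96-well plates. Step 2: Expose to compound for 48 hours at 5 concentrations. Step 3: Interpolate endpoints linearly; if unreached, use highest concentration. GI50: concentration for 50% inhibition of growth. At the TGI there is no net growth.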

Some test systems named below: 786-0 renal; CAKI-1 renal; K-562 leukemia; M14 melanoma; MOLT-4 leukemia; NCI-H23 lung; SF-295 CNS; SN12C renal; SNB-19 CNS; U251 CNS.
Test in all cases: DTP human tumour cell line panel, 48 h

As for `O=C(O)C12CC3(C(=O)O)CC(C(=O)O)(CC(C(=O)O)(C1)C3=O)C2=O`, the TGI in the assay on 786-0 renal, with CAKI-1 renal, in the assay with K-562 leukemia, in the assay on M14 melanoma, in the assay on MOLT-4 leukemia and in the assay on NCI-H23 lung was more than 100 µM in each case. Besides, the TGI with SF-295 CNS, in the assay with SN12C renal, in the assay with SNB-19 CNS and in the assay with U251 CNS was more than 100 µM each time.

For `C[C@]12CC[C@@H]3c4ccc(O)c([N+](=O)[O-])c4CC[C@H]3[C@@H]1CC[C@@H]2NS(=O)(=O)c1cccc(Br)c1`, the GI50 is 2.7 µM in the assay on 786-0 renal; 2.36 µM with CAKI-1 renal; 3.1 µM in the assay on K-562 leukemia; 1.91 µM in the assay with M14 melanoma; 2.98 µM with MOLT-4 leukemia; 2 µM with NCI-H23 lung. Besides, the GI50 is 1.68 µM with SF-295 CNS, 1.72 µM in the assay on SN12C renal, 3.53 µM with SNB-19 CNS and 1.9 µM in the assay on U251 CNS. The TGI in the assay with 786-0 renal worked out at 7.5 µM; with CAKI-1 renal it was 5.43 µM; in the assay with K-562 leukemia, 10.7 µM; in the assay on M14 melanoma, 4.11 µM; with MOLT-4 leukemia, 13.4 µM; in the assay with NCI-H23 lung it was 5.06 µM. For the same compound, the TGI with SF-295 CNS worked out at 3.13 µM; in the assay on SN12C renal, 3.54 µM; with SNB-19 CNS, 14.1 µM; in the assay with U251 CNS it was 4.28 µM.

Take `CC1C(=O)OC2CC[N+]3([O-])CC=C(COC(=O)C(C)(O)C1(C)O)C23` (stereo not drawn): the TGI with 786-0 renal, in the assay with CAKI-1 renal, in the assay on K-562 leukemia, in the assay with M14 melanoma, in the assay with MOLT-4 leukemia and in the assay on NCI-H23 lung was more than 100 µM throughout. The TGI in the assay on SF-295 CNS, in the assay on SN12C renal, in the assay on SNB-19 CNS and with U251 CNS was more than 100 µM each time.

In the case of `O=C1C(=O)N(c2cc(Cl)ccc2Cl)C(=O)C(=O)C1c1nc2ccccc2o1`, the TGI with 786-0 renal, in the assay with CAKI-1 renal, in the assay on K-562 leukemia, in the assay with M14 melanoma, in the assay on MOLT-4 leukemia and with NCI-H23 lung was more than 100 µM throughout. In addition, the TGI in the assay on SF-295 CNS, with SN12C renal, in the assay with SNB-19 CNS and in the assay on U251 CNS was more than 100 µM throughout.

Regarding `COCOc1ccc(C2(O)Oc3cc(OCOC)ccc3C2C)c(O)c1` (stereo not drawn), the TGI in the assay with 786-0 renal is 31.6 µM; in the assay with CAKI-1 renal, 30.4 µM; in the assay on K-562 leukemia, 44.7 µM; in the assay on M14 melanoma, 30.4 µM; with MOLT-4 leukemia, 60.8 µM; with NCI-H23 lung, 23.9 µM. For the same compound, the TGI was determined as 29 µM with SF-295 CNS, 30 µM in the assay with SN12C renal, 29.4 µM in the assay with SNB-19 CNS and 28.2 µM with U251 CNS.

For the compound `Cc1cccc(C)c1NC(=O)C(=O)CC(=O)c1cccc([N+](=O)[O-])c1`, the TGI in the assay on 786-0 renal, in the assay with CAKI-1 renal, in the assay on K-562 leukemia, with M14 melanoma, with MOLT-4 leukemia and in the assay with NCI-H23 lung was more than 100 µM throughout. For the same compound, the TGI in the assay on SF-295 CNS, in the assay with SN12C renal, in the assay on SNB-19 CNS and with U251 CNS was more than 100 µM throughout.

`COc1cc(C(=O)N2CCc3c([nH]c4c([N+](=O)[O-])c(OC)ccc34)C2C)cc(OC)c1OC` (stereo not drawn): the TGI in the assay with 786-0 renal, with CAKI-1 renal, in the assay with K-562 leukemia, with M14 melanoma, in the assay with MOLT-4 leukemia and in the assay on NCI-H23 lung was more than 100 µM each time. Moreover, the TGI in the assay on SF-295 CNS, with SN12C renal, with SNB-19 CNS and in the assay with U251 CNS was more than 100 µM throughout.

For the compound `O=c1[nH]c(=O)n([C@H]2CCCO2)cc1F`, the GI50 in the assay on 786-0 renal is 1780 µM; with CAKI-1 renal it was 2100 µM; in the assay with K-562 leukemia, 2770 µM; in the assay with M14 melanoma, 1450 µM; with MOLT-4 leukemia, more than 3500 µM; with NCI-H23 lung, 936 µM. Moreover, the GI50 in the assay on SF-295 CNS is more than 4530 µM; with SN12C renal it was 1910 µM; in the assay with U251 CNS, more than 4570 µM. In addition, the TGI in the assay with 786-0 renal, with CAKI-1 renal, in the assay with K-562 leukemia, in the assay on M14 melanoma, with MOLT-4 leukemia and with NCI-H23 lung was more than 5000 µM throughout. Besides, the TGI in the assay with SF-295 CNS, with SN12C renal, in the assay on SNB-19 CNS and in the assay with U251 CNS was more than 5000 µM throughout.

Consider `COc1ccc2c(Oc3ccc(NC(=O)c4c(C)n(CC(C)(C)O)n(-c5ccccc5)c4=O)nc3)ccnc2c1`, for which the GI50 in the assay with 786-0 renal is 22.3 µM; in the assay with CAKI-1 renal, 3.33 µM; in the assay on K-562 leukemia it was 2.77 µM; with M14 melanoma it was 6.29 µM; in the assay with MOLT-4 leukemia it was 9.07 µM; in the assay on NCI-H23 lung it was 18.4 µM. Moreover, the GI50 in the assay with SF-295 CNS was 0.654 µM; in the assay with SN12C renal, 4.94 µM; in the assay with SNB-19 CNS, 46.4 µM; in the assay on U251 CNS, 13.1 µM. Besides, the TGI in the assay with 786-0 renal is more than 100 µM; in the assay on CAKI-1 renal, more than 27.7 µM; with K-562 leukemia it was 20 µM; in the assay with M14 melanoma, more than 100 µM; in the assay with MOLT-4 leukemia, more than 100 µM; in the assay with NCI-H23 lung, more than 100 µM. For the same compound, the TGI in the assay with SF-295 CNS is 12.7 µM; with SN12C renal, more than 100 µM; with SNB-19 CNS it was more than 100 µM; in the assay on U251 CNS it was more than 100 µM.

On to `CC(O)CC(O)(C(F)(F)F)C(F)(F)F` (stereo not drawn), for which the TGI in the assay with 786-0 renal, with CAKI-1 renal, with K-562 leukemia, in the assay on M14 melanoma, in the assay on MOLT-4 leukemia and in the assay on NCI-H23 lung was more than 10 µM in each case. The TGI in the assay with SF-295 CNS, with SN12C renal, with SNB-19 CNS and in the assay on U251 CNS was more than 10 µM throughout.

Take `C/C(=N\NC(=S)N1CC2CCC(CC2)C1)c1ccccn1`: the GI50 in the assay with 786-0 renal was 0.152 µM; in the assay with CAKI-1 renal it was 0.27 µM; in the assay with K-562 leukemia it was less than 0.0108 µM; in the assay on M14 melanoma, 0.0431 µM; with MOLT-4 leukemia it was 0.0598 µM; in the assay on NCI-H23 lung, 0.0179 µM. The GI50 was 0.178 µM in the assay with SF-295 CNS, 0.228 µM in the assay on SN12C renal, 0.345 µM in the assay on SNB-19 CNS and 0.0473 µM in the assay with U251 CNS. Moreover, the TGI with 786-0 renal worked out at 1.46 µM; with CAKI-1 renal it was 3.89 µM; with K-562 leukemia, 2.21 µM; with M14 melanoma, 1.21 µM; in the assay with MOLT-4 leukemia it was 3.74 µM; with NCI-H23 lung it was 3.34 µM. Also, the TGI was 2.08 µM in the assay on SF-295 CNS, 2.03 µM in the assay on SN12C renal, 3.78 µM in the assay with SNB-19 CNS and 1.19 µM in the assay with U251 CNS.

Turning to `COC1=C(Br)C(=O)c2nc(C)ccc2C1=O`, the TGI was 27.2 µM with 786-0 renal; 29.3 µM in the assay on CAKI-1 renal; more than 27.8 µM with K-562 leukemia; 28.4 µM in the assay on M14 melanoma; more than 20.8 µM in the assay with MOLT-4 leukemia; 27 µM in the assay with NCI-H23 lung. Also, the TGI was 34.7 µM in the assay on SF-295 CNS, 29.1 µM with SN12C renal, more than 55.1 µM with SNB-19 CNS and 28.5 µM in the assay with U251 CNS.

For the compound `OCCNCCOc1ccc(/C(=C(/Cl)c2ccccc2)c2ccccc2)cc1`, the TGI with 786-0 renal is 22.2 µM; in the assay on CAKI-1 renal it was 25.7 µM; in the assay with K-562 leukemia, 11 µM; in the assay with M14 melanoma, 3.59 µM; in the assay on MOLT-4 leukemia, 17.2 µM; in the assay with NCI-H23 lung it was 28.4 µM. In addition, the TGI came to 28.5 µM with SF-295 CNS, 19.7 µM with SN12C renal, 28.4 µM in the assay with SNB-19 CNS and 21.1 µM in the assay on U251 CNS.

Take `O=C(O)CSc1n[nH]c(Cc2ccccc2)n1`: the TGI in the assay on 786-0 renal, with CAKI-1 renal, in the assay on K-562 leukemia, in the assay on M14 melanoma, in the assay with MOLT-4 leukemia and in the assay on NCI-H23 lung was more than 100 µM each time. The TGI in the assay with SF-295 CNS, with SN12C renal, in the assay on SNB-19 CNS and in the assay with U251 CNS was more than 100 µM throughout.

For `CC1=C(C(=O)Nc2ccccc2)C(c2ccc(C3C(C(=O)Nc4ccccc4)=C(C)NC(C)=C3C(=O)Nc3ccccc3)cc2)C(C(=O)Nc2ccccc2)=C(C)N1`, the TGI in the assay on 786-0 renal is 8.92 µM; in the assay on CAKI-1 renal it was 14.4 µM; in the assay on K-562 leukemia it was more than 53 µM; with M14 melanoma, 6.46 µM; in the assay on MOLT-4 leukemia, 11.6 µM; in the assay on NCI-H23 lung, 8.65 µM. Moreover, the TGI was found to be 7.88 µM with SF-295 CNS, 4.71 µM in the assay on SN12C renal, 20.5 µM in the assay with SNB-19 CNS and 3 µM in the assay with U251 CNS.

For `Nc1ccc2nc3n(c2c1)C(=O)c1ccccc1-3`, the TGI in the assay with 786-0 renal, in the assay on CAKI-1 renal, with K-562 leukemia, in the assay on M14 melanoma, with MOLT-4 leukemia and in the assay on NCI-H23 lung was more than 100 µM throughout. The TGI in the assay on SF-295 CNS, with SN12C renal, with SNB-19 CNS and in the assay on U251 CNS was more than 100 µM throughout.

For `CCOc1ccccc1NC(=O)C(C#N)C1=C(Cl)C(=O)c2ccccc2C1=O` (stereo not drawn), the GI50 in the assay with 786-0 renal was 0.899 µM; in the assay on CAKI-1 renal, 1.81 µM; with K-562 leukemia, 2.93 µM; in the assay with SNB-19 CNS, 3.07 µM; in the assay on U251 CNS, 1.95 µM. In addition, the TGI is 3.18 µM and 2.19 µM in the assay on 786-0 renal; 5 µM and 3.29 µM in the assay on CAKI-1 renal; 3.05 µM and 3.14 µM in the assay on M14 melanoma; 3.32 µM in the assay with MOLT-4 leukemia; 3.99 µM and 6.17 µM with NCI-H23 lung; 3.13 µM and 3.19 µM in the assay on SF-295 CNS. The TGI in the assay with SN12C renal was 3.19 µM and 3.53 µM; in the assay on SNB-19 CNS it was 3.6 µM and 10.2 µM; in the assay on U251 CNS it was 3.14 µM and 3.82 µM.
